Data taken from ChEMBL document CHEMBL1142777, “Identification of potent type I MetAP inhibitors by simple bioisosteric replacement. Part 1: Synthesis and preliminary SAR studies of thiazole-4-carboxylic acid thiazol-2-ylamide derivatives” (Bioorg Med Chem Lett, 2005).

Legend:
[1] = target: T1, Methionine aminopeptidase 1 (Saccharomyces cerevisiae S288c, UniProt Q01662); assay: Inhibitory concentration required against Saccharomyces cerevisiae MetAP1 (330 nM)
T1 sequence (Q01662 whole entry): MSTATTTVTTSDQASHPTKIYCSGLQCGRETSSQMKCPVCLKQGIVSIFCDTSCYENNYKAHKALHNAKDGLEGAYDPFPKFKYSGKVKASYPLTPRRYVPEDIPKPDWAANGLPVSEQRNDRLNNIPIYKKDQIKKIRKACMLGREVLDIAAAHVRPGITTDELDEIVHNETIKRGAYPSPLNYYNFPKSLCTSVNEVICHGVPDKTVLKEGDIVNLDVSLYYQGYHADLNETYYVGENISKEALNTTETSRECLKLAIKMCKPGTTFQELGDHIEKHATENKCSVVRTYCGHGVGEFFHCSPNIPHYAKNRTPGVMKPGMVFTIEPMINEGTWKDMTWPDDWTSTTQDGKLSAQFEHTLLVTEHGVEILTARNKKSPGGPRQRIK

[2] = target: T2, Methionine aminopeptidase (Escherichia coli K-12, UniProt P0AE18); assay: Inhibitory concentration required against Escherichia coli MetAP1 (150 nM)
T2 sequence (P0AE18 whole entry): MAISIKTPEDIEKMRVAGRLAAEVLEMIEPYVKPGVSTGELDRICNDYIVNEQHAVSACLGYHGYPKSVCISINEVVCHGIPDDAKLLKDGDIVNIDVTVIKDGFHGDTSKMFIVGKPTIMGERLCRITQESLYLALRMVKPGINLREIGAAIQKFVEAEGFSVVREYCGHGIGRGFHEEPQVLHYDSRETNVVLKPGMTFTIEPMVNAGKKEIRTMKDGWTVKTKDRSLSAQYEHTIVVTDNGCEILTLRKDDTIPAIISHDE

Row | Structure (SMILES) | IC50 [1] [nM] | IC50 [2] [nM]
1 | O=C(Nc1nccs1)c1ncsc1Cc1ccccc1 | 3800 | 170
2 | O=C(CN1CCCC1)Nc1scnc1C(=O)Nc1nccs1 | 860 | 160
3 | O=C(Nc1scnc1C(=O)Nc1nccs1)c1cccc(Cl)c1 | 1830 | 270
4 | CN(C)CC(=O)Nc1scnc1C(=O)Nc1nccs1 | 10500 | 300
5 | CCCCCc1scnc1C(=O)Nc1nccs1 | 980 | 160
6 | Nc1scnc1C(=O)Nc1nccs1 | 13200 | 1970
7 | CCCCCCCCCCCc1scnc1C(=O)Nc1nccs1 | > 100000 | 76500
8 | O=C(Nc1scnc1C(=O)Nc1nccs1)c1ccc(F)cc1 | 480 | 110
9 | Cc1scnc1C(=O)Nc1nccs1 | 9820 | 180
10 | O=C(Nc1nccs1)c1ncsc1-c1ccccc1 | 3410 | 210
11 | CCc1scnc1C(=O)Nc1nccs1 | 7640 | 180
12 | CC(C)=CCC(=O)Nc1cccnc1C(=O)Nc1nccs1 | 140 | 
13 | CC(C)=CCCC(C)Cc1scnc1C(=O)Nc1nccs1 (stereo not drawn) | 2110 | 170
14 | COc1ccccc1C(=O)Nc1scnc1C(=O)Nc1nccs1 | 3320 | 190
15 | O=C(CN1CCCCC1)Nc1scnc1C(=O)Nc1nccs1 | 1450 | 140
16 | CC(C)c1scnc1C(=O)Nc1nccs1 | 7200 | 220
17 | C=CCC(=O)Nc1cccnc1C(=O)Nc1nccs1 |  | 130

Continued by falling IC50 [2], values first:

Row | IC50 [1] [nM] | IC50 [2] [nM] | Structure (SMILES)
18 | 2260 | 110 | O=C(Nc1nccs1)c1cscn1
19 | 4710 | 110 | O=C(CN1CCOCC1)Nc1scnc1C(=O)Nc1nccs1
20 | 990 | 100 | CC(C)Cc1scnc1C(=O)Nc1nccs1
21 | 1530 | 92 | COCC(=O)Nc1scnc1C(=O)Nc1nccs1
22 | 500 | 89 | COC(Cc1scnc1C(=O)Nc1nccs1)C(C)C (stereo not drawn)
23 | 4910 | 88 | O=C(O)CC(=O)Nc1scnc1C(=O)Nc1nccs1
24 | 900 | 82 | O=C(Nc1nccs1)c1ncsc1Cc1ccc(F)cc1Cl
25 | 220 | 81 | CCC(=O)Nc1scnc1C(=O)Nc1nccs1
26 | 2650 | 76 | CC(=O)OCC(=O)Nc1scnc1C(=O)Nc1nccs1
27 | 990 | 76 | O=C(Nc1scnc1C(=O)Nc1nccs1)c1ccccc1F
28 | 880 | 74 | COC(C)Cc1scnc1C(=O)Nc1nccs1 (stereo not drawn)
29 | 670 | 66 | CCOC(=O)CC(=O)Nc1scnc1C(=O)Nc1nccs1
30 | 660 | 65 | O=C(Nc1nccs1)c1ncsc1CCc1ccccc1
31 | 4620 | 60 | CC(C)(C)OC(=O)Nc1scnc1C(=O)Nc1nccs1
32 | 2630 | 54 | C=CCC(=O)Nc1scnc1C(=O)Nc1nccs1
33 |  | 53 | O=C(CN1CCCCC1)Nc1cccnc1C(=O)Nc1nccs1
34 | 370 | 44 | C=CC(C)C(=O)Nc1scnc1C(=O)Nc1nccs1 (stereo not drawn)
35 | 6380 | 42 | O=C(Nc1nccs1)c1ncsc1NC(=O)C1CC1
36 | 250 | 40 | O=C(Nc1nccs1)c1ncsc1NC(=O)C1CCC1
37 | 1120 | 29 | O=C(COCc1ccccc1)Nc1scnc1C(=O)Nc1nccs1
38 | 130 | 24 | O=C(Nc1nccs1)c1ncsc1NC(=O)C1CCCC1
